Values joined by “and” are separate entries in the source; they are usually repeats but may differ in a detail not shown here. Equal values may be shown once.
Tests used:
Assay type in all cases: biochemical
BRISC [1] = target: T1, BRISC (Homo sapiens, UniProt P46736+Q15018+Q9NXR7); test: Compound library screening and hit validation (IQF diubiquitin, 1 nM BRISC); conditions: for BRISC, normalised activity (Ext. 1a): two replicate columns
T1 construct: made in house; host or cells: Spodoptera frugiperda (Sf9) insect cells, MultiBac
Method: (§1) Assays were performed in 384-well black flat-bottom low-flange plates (Corning, 35373) in buffer containing 50 mM HEPES–NaOH pH 7.0, 100 mM NaCl, 1 mg ml^−1 BSA, 1 mM DTT and 0.03% v/v Brij-35. Then, 10 μl of twofold concentrated enzyme stock was dispensed, followed by transfer of 200 nl of compounds (1 mM stock) using a 384-pin tool and a 15-min incubation at room temperature. Then, 10 μl of twofold concentrated substrate stock was added and the reaction was monitored by measuring fluorescence intensity (excitation, 540 nm; emission, 580 nm) after 20-min incubation at room temperature and ~50% of substrate was consumed. Orthogonal assays for verification of H20 and P12 hit compounds using USP2 (100 nM) and trypsin (125 nM) were performed in identical conditions.

BRISC [2] = target: T1, BRISC; test: BRISC DUB activity assay (IQF K63-linked diubiquitin); conditions: for IC50: IQF K63-linked diubiquitin substrate, read-out: IC50, inhibition of BRISC DUB activity; for Mean V0: Fig. 1d
Method: (§2) IQF assays were performed in DUB reaction buffer containing 50 mM HEPES–NaOH pH 7.0, 100 mM NaCl, 0.1 mg ml^−1 BSA, 1 mM DTT and 0.03% v/v Brij-35. […] The final concentration of BRISC WT, all BRISC mutants, HsBRISCΔLoop, MmBRISC and DrBRISCΔNΔC was 1 nM. Other enzymes were tested at the following concentrations: 5 nM ARISC (FL), 10 nM CfBRISCΔNΔC, 250 nM AMSH* (ref. [43]), 500 nM USP2 and 1 μM trypsin (Sigma, 9002-07-7). For Michaelis–Menten experiments, 1 nM BRISC with 0–1 μM IQF K63-linked diubiquitin substrate was used. Michaelis–Menten analyses and Lineweaver–Burk plots were calculated using GraphPad Prism (version 9.0).
(§3) To assess enzymatic activity, BRISC complexes were diluted to concentrations between 1 nM and 50 nM. […] Then, 20-μl enzyme reactions were carried out in 384-well black flat-bottom low-flange plates (Corning, 35373). DUB activity was measured using IQF K63-linked diubiquitin (LifeSensors, DU6303) at 50 nM. Cleaved diubiquitin was monitored by measuring fluorescence intensity (excitation, 544 nm; emission, 575 nm; dichroic mirror, 560 nm). Fluorescence intensity was measured every minute for 30 min at 30 °C. Fluorescence intensity units were plotted against time to generate a linear reaction progress curve, where the initial velocity (V0) corresponds to the gradient of the curve (typically achieved within 15 min). IC50 values were calculated using the GraphPad Prism (version 9.0) built-in dose–response equation for inhibitor concentration versus response (variable slope).

trypsin = test: Trypsin IQF diubiquitin selectivity assay; conditions: for TRYPSIN, normalised activity (Ext. 1a): two replicate columns
Method: as §1, with “BRISC DUB activity was measured at room temperature using 1 nM BRISC and 500 nM IQF diubiquitin K63 substrate (LifeSensors, DU6303) in the presence of DMSO and compounds at 10 μM (final concentrations). Assays” for “Assays”
as §2, §3

USP2 = target: T2, USP2 (Homo sapiens, UniProt O75604); test: USP2 IQF diubiquitin selectivity assay; conditions: for USP2, normalised activity (Ext. 1a): two replicate columns
T2 construct: His (N, cleaved yes); host or cells: Escherichia coli BL21(DE3)
T2 sequence (O75604 258-605 limits assumed): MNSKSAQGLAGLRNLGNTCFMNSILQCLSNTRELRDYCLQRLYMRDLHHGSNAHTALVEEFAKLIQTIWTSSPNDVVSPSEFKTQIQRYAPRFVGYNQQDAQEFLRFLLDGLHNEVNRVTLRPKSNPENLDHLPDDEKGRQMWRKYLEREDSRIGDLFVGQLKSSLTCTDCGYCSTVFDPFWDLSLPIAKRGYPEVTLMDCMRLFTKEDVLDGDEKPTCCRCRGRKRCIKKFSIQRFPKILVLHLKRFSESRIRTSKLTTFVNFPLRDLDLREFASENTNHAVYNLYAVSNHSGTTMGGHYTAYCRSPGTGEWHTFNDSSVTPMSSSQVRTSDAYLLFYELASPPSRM
Method: as §1, with “BRISC DUB activity was measured at room temperature using 1 nM BRISC and 500 nM IQF diubiquitin K63 substrate (LifeSensors, DU6303) in the presence of DMSO and compounds at 10 μM (final concentrations). Assays” for “Assays”
as §2, §3

[3] = log [compound (μM)] 0.1938, listed as P12
[4] = log [compound (μM)] 0.4949, listed as P12
[5] = log [compound (μM)] 0.7959, listed as P12
[6] = log [compound (μM)] 1.0969, listed as P12
[7] = log [compound (μM)] 1.3979, listed as P12
[8] = log [compound (μM)] 1.6990, listed as P12
[9] = log [compound (μM)] 2.0000, listed as P12
[10] = log [compound (μM)] -0.1072, listed as P12
[11] = log [compound (μM)] -0.4082, listed as P12
[12] = log [compound (μM)] -0.7093, listed as P12
[13] = log [compound (μM)] -1.0103, listed as P12
[14] = log [compound (μM)] -2.0103, normalisation point

O=C(NC1CCNCC1)c1n[nH]cc1NC(=O)c1c(Cl)cccc1Cl [AT7519 (Synkinase)]
normalised V0, Mean (BRISC [1]; log[compound (μM)] 0.0000): 0.9360 | normalised V0, Mean (BRISC [1]; log[compound (μM)] 1.0000): 0.9184 | normalised V0, Mean (BRISC [1]; log[compound (μM)] 1.3010): 0.8902 | normalised V0, Mean (BRISC [1]; log[compound (μM)] 1.6990): 0.8666 | normalised V0, Mean (BRISC [1]; log[compound (μM)] 2.0000): 0.8425 | normalised V0, Mean (BRISC [1]; log[compound (μM)] -3.0000, normalisation point): 1

C[N+]1(C)CCC(NC(=O)c2nn(C(=O)c3c(Cl)cccc3Cl)cc2NC(=O)c2c(Cl)cccc2Cl)CC1 [FX-25-2]
IC50 (BRISC [2]): 21 µM | normalised V0, Mean (BRISC [2]; inhibitor 0.0268861 μM): 1 | normalised V0, Mean (BRISC [2]; inhibitor 0.268861 μM): 1.082 | normalised V0, Mean (BRISC [2]; inhibitor 0.806584 μM): 1.109 | normalised V0, Mean (BRISC [2]; inhibitor 2.41975 μM): 1.0044 | normalised V0, Mean (BRISC [2]; inhibitor 7.25926 μM): 1.002 | normalised V0, Mean (BRISC [2]; inhibitor 21.7778 μM): 0.6484 | normalised V0, Mean (BRISC [2]; inhibitor 65.3333 μM): 0.3437 | normalised V0, Mean (BRISC [2]; inhibitor 196 μM): 0.2841

Nc1ccc(C(=O)Nc2cccc(-c3nc(N4CCOCC4)c4oc5ncccc5c4n3)c2)cn1 [YM201636, reference compound]
inhibition of trypsin (trypsin; IQF K63 diubiquitin substrate): inhibited | TRYPSIN, normalised activity (Ext. 1a) (trypsin; [3]): 0.9684 and 0.9837 | TRYPSIN, normalised activity (Ext. 1a) (trypsin; [4]): 0.8434 and 0.8923 | TRYPSIN, normalised activity (Ext. 1a) (trypsin; [5]): 0.6993 and 0.7044 | TRYPSIN, normalised activity (Ext. 1a) (trypsin; [6]): 0.6731 and 0.7139 | TRYPSIN, normalised activity (Ext. 1a) (trypsin; [7]): 0.4990 and 0.5130 | TRYPSIN, normalised activity (Ext. 1a) (trypsin; [8]): 0.3403 and 0.4535 | TRYPSIN, normalised activity (Ext. 1a) (trypsin; [9]): 0.3318 and 0.3209 | TRYPSIN, normalised activity (Ext. 1a) (trypsin; [10]): 1.0347 and 0.9747 | TRYPSIN, normalised activity (Ext. 1a) (trypsin; [11]): 1.0259 and 0.9266 | TRYPSIN, normalised activity (Ext. 1a) (trypsin; [12]): 0.9472 and 0.9474 | TRYPSIN, normalised activity (Ext. 1a) (trypsin; [13]): 0.9224 and 0.9184 | TRYPSIN, normalised activity (Ext. 1a) (trypsin; [14]): 1.0000 | inhibition of BRISC, hit validation dose response (BRISC [1]; BRISC 1 nM): inhibited | BRISC, normalised activity (Ext. 1a) (BRISC [1]; [3]): 0.9184 and 0.9164 | BRISC, normalised activity (Ext. 1a) (BRISC [1]; [4]): 0.8260 and 0.8472 | BRISC, normalised activity (Ext. 1a) (BRISC [1]; [5]): 0.7220 and 0.6802 | BRISC, normalised activity (Ext. 1a) (BRISC [1]; [6]): 0.5475 and 0.6138 | BRISC, normalised activity (Ext. 1a) (BRISC [1]; [7]): 0.4196 and 0.4274 | BRISC, normalised activity (Ext. 1a) (BRISC [1]; [8]): 0.2277 and 0.3017 | BRISC, normalised activity (Ext. 1a) (BRISC [1]; [9]): 0.1348 and 0.1662 | BRISC, normalised activity (Ext. 1a) (BRISC [1]; [10]): 0.9841 and 0.9959 | BRISC, normalised activity (Ext. 1a) (BRISC [1]; [11]): 1.0145 and 0.9950 | BRISC, normalised activity (Ext. 1a) (BRISC [1]; [12]): 0.9264 and 1.0022 | BRISC, normalised activity (Ext. 1a) (BRISC [1]; [13]): 0.9725 and 0.9468 | BRISC, normalised activity (Ext. 1a) (BRISC [1]; [14]): 1.0000 | inhibition of USP2 (USP2; IQF K63 diubiquitin substrate): inhibited | USP2, normalised activity (Ext. 1a) (USP2; [3]): 0.9446 and 0.9072 | USP2, normalised activity (Ext. 1a) (USP2; [4]): 0.7366 and 0.8095 | USP2, normalised activity (Ext. 1a) (USP2; [5]): 0.5989 and 0.5952 | USP2, normalised activity (Ext. 1a) (USP2; [6]): 0.4578 and 0.4777 | USP2, normalised activity (Ext. 1a) (USP2; [7]): 0.2821 and 0.3159 | USP2, normalised activity (Ext. 1a) (USP2; [8]): 0.1157 and 0.1340 | USP2, normalised activity (Ext. 1a) (USP2; [9]): 0.0697 and 0.0548 | USP2, normalised activity (Ext. 1a) (USP2; [10]): 0.9974 and 0.9861 | USP2, normalised activity (Ext. 1a) (USP2; [11]): 1.0145 and 0.9995 | USP2, normalised activity (Ext. 1a) (USP2; [12]): 1.0193 and 1.0736 | USP2, normalised activity (Ext. 1a) (USP2; [13]): 0.9978 and 1.0361 | USP2, normalised activity (Ext. 1a) (USP2; [14]): 1.0000

O=C(NC1CCNCC1)c1n[nH]cc1NC(=O)c1c(Cl)cccc1Cl [AT7519, N-(4-piperidinyl)-4-(2,6-dichlorobenzoylamino)-1H-pyrazole-3-carboxamide, reference compound]
inhibition of BRISC DUB activity (in words) (BRISC [2]; IQF diubiquitin assay): neither inhibited

O=C(NC1CCNCC1)c1nn(C(=O)c2c(Cl)cccc2Cl)cc1NC(=O)c1c(Cl)cccc1Cl [JMS175-2]
Mean V0 (BRISC [2]; log[compound (μM)] 0.1938): 0.5385 | Mean V0 (BRISC [2]; log[compound (μM)] 0.4949): 0.3840 | Mean V0 (BRISC [2]; log[compound (μM)] 0.7959): 0.2986 | Mean V0 (BRISC [2]; log[compound (μM)] 1.0969): 0.2014 | Mean V0 (BRISC [2]; log[compound (μM)] 1.3979): 0.1684 | Mean V0 (BRISC [2]; log[compound (μM)] 1.6990): 0.1492 | Mean V0 (BRISC [2]; log[compound (μM)] 2.0000): 0.0500 | Mean V0 (BRISC [2]; log[compound (μM)] 2.3010): 0.0048 | Mean V0 (BRISC [2]; log[compound (μM)] -0.1072): 0.7414 | Mean V0 (BRISC [2]; log[compound (μM)] -1.1072): 0.9992 | Mean V0 (BRISC [2]; log[compound (μM)] -2.0000): 1.0000

CN1CCC(NC(=O)c2nn(C(=O)c3c(Cl)cccc3Cl)cc2NC(=O)c2c(Cl)cccc2Cl)CC1 [FX-25-1]
IC50 (BRISC [2]): 5.2 µM | normalised V0, Mean (BRISC [2]; inhibitor 0.0268861 μM): 1 | normalised V0, Mean (BRISC [2]; inhibitor 0.268861 μM): 0.8889 | normalised V0, Mean (BRISC [2]; inhibitor 0.806584 μM): 0.8346 | normalised V0, Mean (BRISC [2]; inhibitor 2.41975 μM): 0.6971 | normalised V0, Mean (BRISC [2]; inhibitor 7.25926 μM): 0.4496 | normalised V0, Mean (BRISC [2]; inhibitor 21.7778 μM): 0.3208 | normalised V0, Mean (BRISC [2]; inhibitor 65.3333 μM): 0.1744 | normalised V0, Mean (BRISC [2]; inhibitor 196 μM): 0.1298

O=C(NC1CCNCC1)c1n[nH]cc1NC(=O)c1c(Cl)cccc1Cl [AT7519 (Sellekchem)]
normalised V0, Mean (BRISC [1]; log[compound (μM)] 0.0000): 0.9555 | normalised V0, Mean (BRISC [1]; log[compound (μM)] 0.6990): 1.0013 | normalised V0, Mean (BRISC [1]; log[compound (μM)] 1.0000): 1.0109 | normalised V0, Mean (BRISC [1]; log[compound (μM)] 1.4771): 0.9903 | normalised V0, Mean (BRISC [1]; log[compound (μM)] 1.6990): 1.0462 | normalised V0, Mean (BRISC [1]; log[compound (μM)] 2.0000): 1.0357 | normalised V0, Mean (BRISC [1]; log[compound (μM)] 2.3010): 0.9736 | normalised V0, Mean (BRISC [1]; log[compound (μM)] -1.0000): 1.0118 | normalised V0, Mean (BRISC [1]; log[compound (μM)] -1.3010): 0.9395 | normalised V0, Mean (BRISC [1]; log[compound (μM)] -4.0000): 1.0025
